{"source": "patent US9783518B2", "about": "“Therapeutic agent and treatment method for ameliorating uremia” (Toray Industries, Inc., priority 2005, dated 2017)", "key": {"[1]": {"system": "rat glomerulonephritis models", "conditions": "prophylactic administration before the nephritis-inducing substance; cited from earlier work"}, "[2]": {"system": "patients with renal failure", "conditions": "renal failure in conservative stage; cited from earlier work"}, "[3]": {"system": "cats with chronic renal failure", "assay": "Blood biochemical analysis and urinalysis (BUN, serum Cre, glucose) in cats with chronic renal failure", "type": "in vivo, cat", "experimental": "Testing methods for the patients showing uremia caused by chronic renal failure, employed in Example 4 or later, will now be described. The criteria and evaluation items for the cats and dogs with chronic renal failure are as follows: Diagnosis of uremia and chronic renal failure were performed totally taking clinical findings (including findings of uremia) and the results of the blood test, blood biochemical analysis and urinalysis into consideration. As the clinical findings of uremia, existence and degree of polydipsia and diuresis, dehydration, anorexia, weight loss, vomiting symptom and state of dehydration were observed. Existence of chronic renal failure was judged based on the serum Cre value as generally employed. As reference data for grasping the degree of progress of chronic renal failure, BUN value was also monitored.\nIn the blood test, RBC, WBC, PCV, Hg and PLT were measured. In the blood biochemical analysis, TP, Tcho, AST, ALT, ALP, Tbil, BUN, creatinine, calcium, inorganic phosphorus, glucose, sodium ion, potassium ion and chloride ion were measured. In the urinalysis, protein amount, pH, occult blood, bilirubin and glucose were measured. To eliminate the circadian rhythm and influence by meals on the values of blood biochemical markers, every blood collection was carried out in the morning before feeding (at fasting).\nAs a more specific criterion for chronic renal failure in cats and dogs in the present Examples, a serum Cre value of 1.4 mg/dL in the blood test was employed. Serum Cre value was measured by creatinine deaminase-amidohydrolase method, and the BUN value as reference data for grasping the degree of progress of chronic renal failure was measured by urease-GLDH method.\nAdministration of beraprost sodium was conducted by orally administering the tablet with a content of 150 μg/tablet (Example 1) twice a day (300 μg/head/day). The administration was conducted every day and continued basically for 6 months, and in cases where the owner desired, the administration was continued even after the test period. The Examples of the present invention include both cases where the dosing period was less than 6 months and more than 6 months."}, "[4]": {"system": "immune complex-induced glomerulonephritis mouse NZB/WF1", "conditions": "administered before onset; cited from earlier work"}, "healthy cats": {"system": "healthy cats", "assay": "Blood pressure and heart rate (oscillometric) in healthy cats", "type": "in vivo, cat", "experimental": "In this study, 3 male cats and 2 female cats, totally 5 Japanese cats, aging 3 to 6 years old were used, which were raised in an animal hospital and for which no abnormalities were observed clinically and by blood test. The subject cats were individually placed in each cage in which each cat was allowed to take water ad libitum, and each cat was fed twice a day after measuring the necessary items. For the purpose of acclimatization, the cats were measured for blood pressure noninvasively twice a day for 2 weeks.\nBlood pressure and heart rate were measured as follows: These were noninvasively measured oscillometrically by using Life Scope 9 produced by NIHON KOHDEN. Systolic pressure, diastolic pressure and heart rate were measured 5 times each before the administration of beraprost sodium and 30 minutes, 1 hour, 2 hours and 3 hours after administration of beraprost sodium at the right foreleg of each cat. From the 5 measured values, the maximum and minimum values were excluded, and the average of the remaining 3 measured values was adopted as the measured value of the individual at the time point. The measurements were carried out every time for 7 days, and the responses by the respective administrations had about the same pattern. In the Example, the results (FIGS. 1 and 2) at the first administration of beraprost sodium are shown as a representative.\nIn each administration series, the same cat was used in each administration series as the subject cat for the correctness of the evaluation of the test drug. To eliminate the influence of the test drug of the previous series, wash out period of 2 weeks were given after the termination of the respective series. In the beraprost sodium administration series and the placebo administration series, the solution-containing capsules prepared in Example 2 were used. Administration was performed orally at fasting twice a day at intervals of 12 hours for continuous 7 days.\nStatistical analysis was carried out using a statistical software Stat View J-4.5 (Abacus Concepts). Since the parameter values before and after the administration to the same individual are compared, significant test was carried out by the paired t-test. In any of the cases, when the significance level was less than 5%, it was judged as significant."}, "[5]": {"system": "cats with chronic renal failure", "assay": "Adverse events during treatment of cats with chronic renal failure", "type": "in vivo, cat", "experimental": "This pilot clinical test was performed after obtaining informed consent of the owners of the cats (clients) before the start of the test, wherein the clients received explanations about the fact that beraprost sodium had already been approved as a drug for human chronic artery obstruction and had already been marketed, and about the safety thereof. Further, giving first priority to the benefit of the patients and clients, conventional therapeutic methods were also combined appropriately for the individuals with progressed renal failure. Examples of the concomitant drugs employed include synthetic active carbons such as Covalzin, Kremezin and Nefguard; calcium preparations such as calcium carbonate; formula meals such as k/d and low-protein diets; and infusion solutions. However, in cases where there was a rational reason and consent by the owner was obtained, beraprost sodium alone was administered even to the individual with progressed renal failure. On the other hand, drugs thought to influence on the action of beraprost sodium, such as vasodilators (e.g., enalapril), diuretic (e.g., furosemide), drugs which influence on renal blood flow (e.g., dopamine) and steroids (e.g., prednisolone) were not used.\n[…] The administration was conducted every day and continued basically for 6 months, and in cases where the owner desired, the administration was continued even after the test period. The Examples of the present invention include both cases where the dosing period was less than 6 months and more than 6 months."}, "[6]": {"system": "patients with diabetic nephropathy", "conditions": "cited from earlier work"}, "[7]": {"conditions": "Case-A, 150 μg oral BID alone, from start of administration"}, "[8]": {"conditions": "Case-A, 6 months after termination (12 months after start)"}, "[9]": {"conditions": "Case-B, daily administration for 1 and half years"}, "[10]": {"conditions": "Case-E, combination therapy, first about 3 months"}, "[11]": {"conditions": "Case-G cat, before the administration (baseline)"}, "[12]": {"conditions": "first administration, 10-100 μg/kg oral"}}, "note": "“Also recorded” adds a separate entry of the source.", "data": [{"smiles": "CC#CC[C@@H](C)[C@H](O)/C=C/[C@@H]1[C@H]2c3cccc(CCCC(=O)[O-])c3O[C@H]2C[C@H]1O.[Na+]", "note": "(mixture of isomers) [beraprost sodium, Sodium rac-(1R,2R,3aS,8bS)-2,3,3a,8b-tetrahydro-2-hydroxy-1-[(E)-(3S,4RS)-3-hydroxy-4-methyloct-1-en-6-ynyl]-1H-cyclopenta[b][1]benzofuran-5-butanoate]", "values": [{"measurement": "onset of nephritis (urinary excretion of albumin)", "setting": "[1]", "result": "prevented"}, {"measurement": "renal function (creatinine clearance or reciprocal of serum creatinine)", "setting": "[2]", "result": "reduced the decrease in renal function"}, {"measurement": "time at which BUN reached the minimum value", "setting": "[3]; Case-A, 150 μg oral BID alone", "result": "second"}, {"measurement": "time at which serum Cre reached the minimum value", "setting": "[3]; Case-A, 150 μg oral BID alone", "result": "fifth"}, {"measurement": "BUN", "setting": "[3]; [7]", "result": "decreased"}, {"measurement": "serum Cre", "setting": "[3]; [7]", "result": "decreased"}, {"measurement": "BUN at follow up", "setting": "[3]; [8]", "result": "remained within the normal ranges; also recorded: maintained at normal levels"}, {"measurement": "serum Cre value at follow up", "setting": "[3]; [8]", "result": "remained within the normal ranges; also recorded: maintained at normal levels"}, {"measurement": "BUN", "setting": "[3]; [9]", "result": "maintained at the normal levels"}, {"measurement": "Cre", "setting": "[3]; [9]", "result": "maintained at the normal levels"}, {"measurement": "BUN value", "setting": "[3]; Case-B, first to second month", "result": "tendency that BUN value and serum Cre value increase"}, {"measurement": "serum Cre value", "setting": "[3]; Case-B, first to second month", "result": "tendency that BUN value and serum Cre value increase"}, {"measurement": "BUN value", "setting": "[3]; Case-B, from the fourth month", "result": "sharply decreased to the normal values"}, {"measurement": "serum Cre value", "setting": "[3]; Case-B, from the fourth month", "result": "sharply decreased to the normal values"}, {"measurement": "BUN value", "setting": "[3]; Case-C, during administration", "result": "continuously increased"}, {"measurement": "serum Cre value", "setting": "[3]; Case-C, during administration", "result": "did not change or slightly increased"}, {"measurement": "BUN value", "setting": "[3]; Case-D, after administration", "result": "continuously increased"}, {"measurement": "serum Cre value", "setting": "[3]; Case-D, after administration", "result": "kept a high value"}, {"measurement": "BUN value", "setting": "[3]; Case-E, 7th to 8th month", "result": "largely increased"}, {"measurement": "Cre value", "setting": "[3]; Case-E, 7th to 8th month", "result": "kept high"}, {"measurement": "BUN value", "setting": "[3]; [10]", "result": "continuously increased"}, {"measurement": "serum Cre value", "setting": "[3]; [10]", "result": "kept high"}, {"measurement": "BUN value", "setting": "[3]; Case-F, after start of beraprost sodium", "result": "kept high"}, {"measurement": "serum Cre value", "setting": "[3]; Case-F, throughout the entire period", "result": "continuously increased"}, {"measurement": "BUN value", "setting": "[3]; [11]", "result": 52.2, "unit": "mg/dL"}, {"measurement": "serum Cre value", "setting": "[3]; [11]", "result": 2.56, "unit": "mg/dL"}, {"measurement": "onset of glomerulonephritis (index: urinary excretion of albumin)", "setting": "[4]", "result": "can be inhibited"}, {"measurement": "maximum change in heart rate (increase)", "setting": "healthy cats; 100 μg/kg oral, 30 minutes after administration", "result": "about 25%"}, {"measurement": "time to restoration of heart rate to the level before administration", "setting": "healthy cats; any dose (10-100 μg/kg oral)", "result": "≤ 2", "unit": "h"}, {"measurement": "diastolic pressure", "setting": "healthy cats; [12]", "result": "No significant change"}, {"measurement": "pulse pressure", "setting": "healthy cats; [12]", "result": "No significant change"}, {"measurement": "systolic pressure", "setting": "healthy cats; [12]", "result": "No significant change"}, {"measurement": "change in heart rate", "setting": "healthy cats; from 30 μg/kg/BID oral, 30 minutes to 1 hour after administration, not at 10 μg/kg/BID", "result": "significant (p<0.05) dose-dependent increase"}, {"measurement": "adverse events such as diarrhea, vomiting", "setting": "[5]; Case-A, 150 μg oral BID, 6 months", "result": "no adverse event"}, {"measurement": "adverse events", "setting": "[5]; Case-B, daily administration continued for 1 and half years", "result": "no adverse event has been observed at all"}, {"measurement": "adverse events such as diarrhea, vomiting", "setting": "[5]; Case-C, 150 μg oral BID alone", "result": "no adverse event"}, {"measurement": "adverse events such as diarrhea, vomiting", "setting": "[5]; Case-D, 150 μg oral BID alone", "result": "no adverse event"}, {"measurement": "adverse events such as diarrhea, vomiting", "setting": "[5]; Case-E, 150 μg oral BID, combination therapy", "result": "no adverse event"}, {"measurement": "adverse events such as diarrhea, vomiting", "setting": "[5]; Case-F, 150 μg oral BID, combination therapy", "result": "no adverse event"}, {"measurement": "adverse events such as diarrhea, vomiting", "setting": "[5]; Case-G, 40 μg/head/BID", "result": "no adverse event"}, {"measurement": "urinary microalbumin", "setting": "[6]", "result": "decreased"}]}]}
